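The compound was tested at five concentrations on cells cultured in 96-well plates, with a 48-hour exposure period. TGI: total growth inhibition.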
Tests used:
Assay in all cases: growth of human tumour cells (NCI), 48 h
U251 CNS = system: U251 CNS
MDA-MB-231 breast = system: MDA-MB-231 breast
MALME-3M melanoma = system: MALME-3M melanoma
MDA-MB-435 = system: MDA-MB-435
HS 578T breast = system: HS 578T breast
MOLT-4 leukemia = system: MOLT-4 leukemia
SNB-19 CNS = system: SNB-19 CNS
SF-539 CNS = system: SF-539 CNS
HL-60(TB) leukemia = system: HL-60(TB) leukemia
RPMI-8226 leukemia = system: RPMI-8226 leukemia
OVCAR-4 ovarian = system: OVCAR-4 ovarian
OVCAR-5 ovarian = system: OVCAR-5 ovarian

SMILES	TGI (U251 CNS) [µM]	TGI (MDA-MB-231 breast) [µM]	TGI (MALME-3M melanoma) [µM]	TGI (MDA-MB-435) [µM]	TGI (HS 578T breast) [µM]	TGI (MOLT-4 leukemia) [µM]	TGI (SNB-19 CNS) [µM]	TGI (SF-539 CNS) [µM]	TGI (HL-60(TB) leukemia) [µM]	TGI (RPMI-8226 leukemia) [µM]	TGI (OVCAR-4 ovarian) [µM]	TGI (OVCAR-5 ovarian) [µM]
COC(=O)/C(=C\c1cn(C(C)=O)c2ccccc12)P(=O)(OC)OC	29.5	24.1	52	64.7	> 100	> 100	32	38.7	> 100	93.9	30.2	–
CN(C)CCCNc1ccc2nnn3c4ccc(OC(=O)c5ccc([N+](=O)[O-])cc5)cc4c(=O)c1c23	33.9	23.3	27.2	20.2	34.8	33.2	22.8	19.3	–	18.6	10.9	28
O=C1c2ccccc2-c2c1c(-c1ccccc1)c1n2C2(C(=O)c3ccccc3C2=O)C2C(=O)N(c3ccccc3)C(=O)C12 (centres undefined)	> 100	–	51.9	50.3	63.7	> 100	> 100	37.5	–	–	> 100	> 100
COc1ccc2c(c1)CCCN1Cc3ccccc3CC21 (centres undefined)	> 100	> 100	> 100	> 100	> 100	> 100	> 100	> 100	> 100	–	> 100	> 100
Nc1cccc(C#Cc2cccc(C#Cc3cccc(N)n3)n2)n1	> 100	> 100	–	> 100	> 100	> 100	> 100	> 100	–	> 100	> 100	> 100
Cc1csc2nc3[nH]ncc3c(=O)n12	> 100	> 100	> 100	> 100	> 100	> 100	> 100	> 100	–	> 100	> 100	> 100
O=C1NC(=NC2CCCCC2)C2(CCN(CCCC3(c4ccc(F)cc4)OCCO3)CC2)N1c1ccccc1	30.2	–	30.5	42.5	35	36.7	35	30.7	28.7	64.5	50.2	30.7
O=C(/C=C(\O)c1ccc(Cl)cc1)C(=O)NN=C(c1ccccc1)c1ccccc1	> 100	65.1	> 100	> 100	85.3	95.1	> 100	> 100	–	–	> 100	> 100
Cc1nn(C(=O)Cc2ccccc2)c2c1C(c1ccccc1[N+](=O)[O-])SC(N)=N2 (centres undefined)	–	> 100	> 100	> 100	> 100	> 100	> 100	> 100	> 100	> 100	–	–
O=C(n1c(=O)n(-c2ccc(Cl)cc2)c(=O)n1C(=O)C(Cl)(Cl)Cl)C(Cl)(Cl)Cl	> 100	> 100	> 100	> 100	> 100	> 100	> 100	> 100	> 100	> 100	> 100	–

— PubChem BioAssay (NCI)
